Assay: clinical use of intranasal oxytocin formulations to treat tinnitus (patient reports, Tinnitus Handicap Inventory)
Assay type: in vivo, human
Excerpt: In an aspect, this disclosure provides a method for treating tinnitus. The method comprises administering intranasally to an individual a composition comprising or consisting essentially of oxytocin, wherein such administration results in treatment of tinnitus. The effectiveness of treatment of tinnitus may be monitored by quantifying tinnitus, such as by self-evaluation using clinically accepted techniques. An example is the Tinnitus Handicap Inventory (“THI”), a validated and published measurement technique. (Newman et al., Arch Otolaryngol Head Neck Surg, 1996, February 122(2), 143-8). In an embodiment, the improvement in an individual using THI may comprise an improvement of at least 10%. In various embodiments, the improvement may comprise from 10-100%, such as at least 20, 30, 40, 50, 60, 70, 80, 90, 95, or 99%.
This example describes clinical use of the present formulations to treat tinnitus. […] The formulation contained oxytocin, magnesium chloride, citric acid, and sodium citrate in sterile water. […] The dose was then increased to 45 IU (3 sprays of 15 IU) 4 times daily. […] A thickener was then added to the formulation keeping the oxytocin amount the same. […] Their score on the Tinnitus Handicap Inventory reduced from a pretreatment score of 96 (meaning a catastrophic level) to a current score of 14 (meaning mild or no tinnitus). The patient has remained improved over 1 year since initiating therapy. Their current dose is 22.5 IU in each nostril 4 times daily. Since their tinnitus occurs in distinct cycles, at times when tinnitus severity is loudest, they increase the dose to 5 times daily for 2 days. […] Their current handicap inventory is 8.
The dose was increased to 45 IU 4 times daily resulting in a decrease in tinnitus volume by approximately 30%.
In another patient, who developed constant tinnitus after a neck injury one year ago, a dose of 45 IU (22.5 IU in each nostril) 4 times daily was used for 30 days and is still ongoing. It has provided about 15% improvement.
In another patient with constant tinnitus a dose of 30 IU 4 times daily has been started and treatment is ongoing.

[1] = fifth patient, constant tinnitus, 30 IU 4 times daily, after 2 weeks
[2] = first patient, 22.5 IU in each nostril 4 times daily, 5 times daily for 2 days when loudest, past 3 months

SMILES: CC[C@H](C)[C@@H]1NC(=O)[C@H](Cc2ccc(O)cc2)NC(=O)[C@@H](N)CSSC[C@@H](C(=O)N2CCC[C@H]2C(=O)N[C@@H](CC(C)C)C(=O)NCC(N)=O)NC(=O)[C@H](CC(N)=O)NC(=O)[C@H](CCC(N)=O)NC1=O [oxytocin, Cys-Tyr-Ile-Gln-Asn-Cys-Pro-Leu-Gly (SEQ ID NO:1)]
- time without noticing the tinnitus [1]: several hours per day without noticing the tinnitus
- tinnitus intensity [1]: tinnitus intensity has lowered
- time patient has remained improved since initiating therapy (first patient): over 1 year
- longest time without tinnitus [2]: ≤ 10 days
- tinnitus severity [2]: reduced tinnitus severity
- current handicap inventory (Tinnitus Handicap Inventory) (first patient, 22.5 IU in each nostril 4 times daily, 5 times daily for 2 days when loudest, pretreatment 96): 8
- score on the Tinnitus Handicap Inventory (first patient, formulation with thickener, pretreatment score 96 (catastrophic level), 14 means mild or no tinnitus): 14
- tinnitus free period (first patient, thickener added, same oxytocin amount (45 IU 4 times daily)): several days of tinnitus free period
- improvement (fourth patient, constant tinnitus after neck injury, 45 IU (22.5 IU in each nostril) 4 times daily for 30 days): about 15%
- tinnitus volume (fourth patient, dose raised on occasions to 5 times daily): diminished tinnitus volume
- relief of tinnitus (general statement, lower amounts of oxytocin (under 20 IU per day)): did not result in any significant relief
- time patient remains improved (second patient, 45 IU twice daily): more than a year
- benefit (third patient, tinnitus caused by a drug, 30 IU twice daily): without benefit
- decrease in tinnitus volume (third patient, tinnitus caused by a drug, 45 IU 4 times daily): approximately 30%

Source: US20210060119A1, “OXYTOCIN COMPOSITIONS FOR TREATMENT OF TINNITUS” (New York University, priority 2019, published 2021)
